Experimental data: patent US20260191817A1, “FIBROBLAST MODULATORS IN STROMA-RICH TUMORS” (UNIVERSITEIT GENT, priority 2022, published 2026)
Entries after “also recorded” stand apart in the source; their conditions may differ.

What was measured:
13B2 hTERT breast CAFs = assay: AFM spheroid stiffness, 13B2 hTERT breast CAFs; type: cell-based, human; settings: for Young's modulus / spheroid stiffness: 1 μM, 48 h during spheroid formation
Description: (§1) It is well established that an increased tumor and ECM stiffness is associated with a negative prognosis as it promotes tumor growth, progression, therapy resistance, immunosuppression and metastasis. Stiffness is chiefly regulated by the action of the CAFs in the TME. Stiffness modulation is, therefore, a fitting read-out of activity in a screen for CAF modulators. To assess stiffness modulation, the stiffness of spheroids of CAF cells treated with test compounds was interrogated using atomic force microscopy (AFM) indentation and compared with untreated cells. AFM measurement of the stiffness (elasticity) of cells and spheroids is a technique well-known to those skilled in the art. AFM measures the force required to create a given deflection, this read-out is also known as the Young's modulus. AFM is widely used in biology and cancer research: altered physicochemical properties of live cells serve as a read-out of altered complex physiological processes.
(§2) U-shaped, 384-well ULA plates (cat. no. MS-9384UZ, S-bio) were seeded with a suspension of cell-specific culture media with cells. Cells were allowed to form spheroids for an appropriate time under treatment conditions before use in experiments. Cell culture dishes (cat. no. 734-2814, VWR) were filled with collagen gel and placed at 37° C. for an appropriate time to allow solidification. For each condition, spheroids were pooled in one cell culture dish. The medium was removed (stored at 37° C.) to promote attachment of the bottom of each spheroid to the collagen gel. The cell culture dishes were incubated at 37° C. After the incubation period, the stored medium was carefully (prevent detachment of spheroids) added to the dishes.
(§3) Mechanical measurements were performed using an atomic force microscope. To indent the spheroids an in-house made colloidal probe was used. Force curves were collected using an appropriate setpoint and probe speed (depending on the stiffness of the spheroids). On each spheroid multiple force curves were collected. Collected curves were then processed using the JPK DP software. Young's modulus was extracted from the force curves. All experiments were performed in biological triplicate.
(§4) To generate 3D cultures mimicking the complexity and pathophysiology of in vivo tumors, spheroids were used (cfr. point 4). Spheroids are considered to better simulate cellular heterogeneity, nutrient and oxygen gradients, cell-cell interactions, cell-matrix interactions, gene expression profiles, stromal interactions, therapeutic responses, multicellular resistance, drug penetration and anti-apoptotic signaling.

CAF03 glioblastoma CAFs = assay: AFM spheroid stiffness, CAF03 glioblastoma CAFs; type: cell-based; settings: 1 μM, 48 h
Description: as §1, §2, §3, §4

CT5.3 hTERT colon CAFs = assay: AFM spheroid stiffness, CT5.3 hTERT colon CAFs; type: cell-based, human; settings: 1 μM, 48 h
Description: as §1
U-shaped, 384-well ULA plates (cat. no. MS-9384UZ, S-bio) were seeded with a suspension of cell-specific culture media with cells. Cells were allowed to form spheroids for an appropriate time under treatment conditions before use in experiments. Cell culture dishes (cat. no. 734-2814, VWR) were filled with collagen gel and placed at 37° C. for an appropriate time to allow solidification. […]

[1] = tested on: 13B2 hTERT, CT5.3 hTERT, HCA2 hTERT, MCF-7/6 and 4T1-Luc cells; assay: 2D CellTiter-Glo Cell Viability Assay; type: cell-based; settings: 48 h of treatment
Description: The half maximal inhibitory concentration (IC50) of A1 was evaluated using a CellTiter-Glo® 2.0 Cell Viability Assay (cat. no. G9243, Promega) and a CellTiter-Glo® 3D Cell Viability Assay (cat. no. G9681, Promega). 13B2 hTERT cells (2D: 2×10^5, 3D: 8×10^4) were plated in each well of a Nunc™ MicroWell™ 96-Well, Nunclon Delta-Treated, Flat-Bottom Microplate (cat. no. 167008, Thermo Fisher Scientific) for 2D experiments or 96-well ULA plate (cat. no. MS-9096UZ, S-bio) in a volume of 90 μL/well. A1 was serially diluted in the appropriate medium to 10× the final concentrations. For each treatment condition, 10 μL was added to 3 replicate wells (final concentrations ranging from 1-100 μM) and plates were incubated for 48 h.
The CellTiter-Glo Cell Viability Assay was performed according to manufacturer's instructions. Briefly, the plates and the CellTiter-Glo® Reagent were equilibrated to room temperature (RT). The CellTiter-Glo® Reagent was added to each well in a 1:1 (v/v) ratio. For 2D experiments, cell lysis was induced by placing the plates on an orbital shaker for 2 min, followed by stabilization of the luminescent signal for 10 min. […] Afterwards, the luminescence was measured using a Synergy™ HTX Multi-Mode Microplate Reader (BioTek). The IC50 value was determined using the Graphpad Prism software. […]

[2] = tested on: primary glioblastoma (GBM) cells; assay: AFM spheroid stiffness, primary glioblastoma cells; type: cell-based, human; settings: 48 h
Description: Selectivity for CAFs with respect to normal fibroblasts and other cell types was assessed by performing an identical experiment with normal fibroblasts and other cell types, where compounds were considered selective for CAFs if they only modulate CAF stiffness.
as §2, §3, §4

| Compound | Young's modulus / spheroid stiffness (13B2 hTERT breast CAFs) | spheroid stiffness (CAF03 glioblastoma CAFs) | spheroid stiffness (CT5.3 hTERT colon CAFs) | IC50 value, metabolic activity of 2D cultures [1] | spheroid stiffness ([2]; 1 μM) | Young's modulus / spheroid stiffness, concentration range (13B2 hTERT breast CAFs; 30 nM-3 μM, 48 h) | spheroid stiffness ([2]; 0.03-3 μM) |
| --- | --- | --- | --- | --- | --- | --- | --- |
| COc1cc2oc(-c3ccc(F)cc3)cc(=O)c2c(OC)c1OC [Compound B1, 2-(4-Fluorophenyl)-5,6,7-trimethoxy-4H-chromen-4-one] | significant decrease; also recorded: active | active | decreased | high micromolar | no effect |  |  |
| COc1cc(C(=O)/C=C/c2ccc(F)cc2)cc(OC)c1OC [Compound A1, 3-(4-Fluorophenyl)-1-(3,4,5-trimethoxyphenyl)prop2-en-1-one] | significant decrease; also recorded: active | decreased; also recorded: active | decreased | high micromolar | no effect | dose-response behavior | nor did it change |
